According to ChEMBL document CHEMBL4354782, “Quinolone antibiotics” (Medchemcomm, 2019):
≈ marks a conversion by molar mass, not a printed value.

Assays:
[1] = Cardiotoxicity in human QTc prolongation; type: toxicity
[2] = Cmax in human at 0.4 g, po; type: ADME; set-up: dose 0.4 g, route oral; conditions: in vivo
Bacteroides fragilis = test: Antibacterial activity against Bacteroides fragilis by agar diffusion method; type: functional
Streptococcus pyogenes = test: Antibacterial activity against Streptococcus pyogenes by agar diffusion method; type: functional
Staphylococcus aureus = test: Antibacterial activity against Staphylococcus aureus by agar diffusion method; type: functional
Pseudomonas aeruginosa = test: Antibacterial activity against Pseudomonas aeruginosa by agar diffusion method; type: functional
Escherichia coli = test: Antibacterial activity against Escherichia coli by agar diffusion method; type: functional
Clostridium perfringens = test: microbe, parasite or virus in culture
Enterococcus = test: Antibacterial activity against Enterococcus by agar diffusion method; type: functional
[3] = Protein binding in human at 0.4 g, po; type: ADME; conditions: in vivo; for fraction unbound: read-out: PB (converted)
[4] = AUC in human at 0.4 g, po; type: ADME; conditions: in vivo
[5] = Toxicity in human assessed as arthralgia effect
[6] = Half life in human at 0.4 g, po; type: ADME; conditions: in vivo
[7] = Toxicity in human assessed as gastrointestinal effect
Streptococcus pneumoniae = test: Antibacterial activity against Streptococcus pneumoniae by agar diffusion method; type: functional
Klebsiella = test: Antibacterial activity against Klebsiella by agar diffusion method; type: functional
Homo sapiens = species: Homo sapiens; test: Phototoxicity in human; type: organism-based; conditions: in vivo
Haemophilus influenzae = test: Antibacterial activity against Haemophilus influenzae with horse blood by agar diffusion method; type: functional
[8] = Protein binding in human at 0.4 g, po bid; type: ADME, organism-based; conditions: in vivo, read-out: PB (converted)
[9] = Cmax in human at 0.4 g, po bid; type: ADME, organism-based; set-up: dose 0.4 g, route oral; conditions: in vivo
[10] = AUC in human at 0.4 g, po bid; type: ADME, organism-based; conditions: in vivo
[11] = Half life in human at 0.4 g, po bid; type: ADME, organism-based; conditions: in vivo
[12] = AUC in human at 0.75 g, po bid; conditions: in vivo
[13] = Cmax in human at 0.75 g, po bid; conditions: in vivo
[14] = Half life in human at 1 g, po administered for 4 times; type: ADME, organism-based; conditions: in vivo
[15] = Toxicity in human assessed as thrombocytopenia
[16] = Haemolytic activity in human; type: ADME, organism-based; conditions: in vivo, read-out: Activity
[17] = Toxicity in human assessed as renal failure
[18] = Toxicity in human assessed as hepatic eosinophilia effect
[19] = Half life in human at 0.2 g, po bid; type: ADME, organism-based; conditions: in vivo
[20] = AUC in human at 0.2 g, po bid; type: ADME, organism-based; conditions: in vivo
[21] = Cmax in human at 0.2 g, po bid; type: ADME, organism-based; set-up: dose 0.2 g, route oral; conditions: in vivo
[22] = Protein binding in human at 0.2 g, po bid; type: ADME, organism-based; conditions: in vivo, read-out: PB (converted)

Row | SMILES | Cmax [2] [ng/mL] | MIC90 (Bacteroides fragilis) [µg/mL] | MIC90 (Streptococcus pyogenes) [µg/mL] | MIC90 (Staphylococcus aureus) [µg/mL] | MIC90 (Pseudomonas aeruginosa) [µg/mL] | MIC90 (Escherichia coli) [µg/mL] | MIC90 (Clostridium perfringens) [µg/mL] | MIC90 (Enterococcus) [µg/mL] | AUC [4] [ng·h/mL] | half-life [6] [h] | MIC90 (Streptococcus pneumoniae) [µg/mL] | MIC90 (Klebsiella) [µg/mL] | MIC90 (Haemophilus influenzae) [µg/mL] | also measured
1 | C[C@@H]1CN(c2c(F)c(N)c3c(=O)c(C(=O)O)cn(C4CC4)c3c2F)C[C@H](C)N1 [SPARFLOXACIN] | 1000 | 4 (≈ 10.2 µM) | 1 (≈ 2.55 µM) | 0.12 (≈ 0.306 µM) | 4 (≈ 10.2 µM) | 0.06 (≈ 0.153 µM) | 0.25 (≈ 0.637 µM) | 2 (≈ 5.1 µM) | 20000 | 18 | 0.5 (≈ 1.27 µM) | 0.5 (≈ 1.27 µM) | 0.03 (≈ 0.0765 µM) | Activity [1]: 2.9%; fraction unbound [3]: 0.6; Activity [5]: 0.5 to 2%; Activity [7]: > 10%; Activity (Homo sapiens): > 10%
2 | CCn1cc(C(=O)O)c(=O)c2cc(F)c(N3CCNCC3)cc21 [NORFLOXACIN] | – | > 64 | 4 (≈ 12.5 µM) | 1 (≈ 3.13 µM) | 2 (≈ 6.26 µM) | 0.12 (≈ 0.376 µM) | – | 4 (≈ 12.5 µM) | – | – | 16 (≈ 50.1 µM) | 0.5 (≈ 1.57 µM) | 0.06 (≈ 0.188 µM) | fraction unbound [8]: 0.85; Cmax [9]: 1500 ng/mL; AUC [10]: 10000 ng·h/mL; half-life [11]: 3 h
3 | O=C(O)c1cn(C2CC2)c2cc(N3CCNCC3)c(F)cc2c1=O [CIPROFLOXACIN] | – | 16 (≈ 48.3 µM) | 1 (≈ 3.02 µM) | – | – | 0.03 (≈ 0.0905 µM) | – | 4 (≈ 12.1 µM) | – | – | – | 0.25 (≈ 0.754 µM) | 0.03 (≈ 0.0905 µM) | AUC [12]: 30000 ng·h/mL; Cmax [13]: 3500 ng/mL
4 | CCn1cc(C(=O)O)c(=O)c2ccc(C)nc21 [NALIDIXIC ACID] | – | > 64 | > 64 | > 64 | > 64 | 8 (≈ 34.4 µM) | > 64 | > 64 | – | – | > 64 | 16 (≈ 68.9 µM) | 2 (≈ 8.61 µM) | half-life [14]: 1.5 h
5 | C[C@H]1NCc2cc(-c3ccc4c(=O)c(C(=O)O)cn(C5CC5)c4c3OC(F)F)ccc21 [GARENOXACIN] | 5800 | 1 (≈ 2.35 µM) | 0.25 (≈ 0.586 µM) | 0.03 (≈ 0.0704 µM) | 16 (≈ 37.5 µM) | 0.06 (≈ 0.141 µM) | 0.25 (≈ 0.586 µM) | 0.5 (≈ 1.17 µM) | 59000 | 15 | 0.12 (≈ 0.281 µM) | 0.5 (≈ 1.17 µM) | 0.03 (≈ 0.0704 µM) | fraction unbound [3]: 0.13
6 | CC1CN(c2cc3c(cc2F)c(=O)c(C(=O)O)cn3-c2ccc(F)cc2F)CCN1 (stereo not given) [TEMAFLOXACIN] | – | – | – | – | – | – | – | – | – | – | – | – | – | Activity [15]: 0.02%; hemolysis [16]: 0.02%; Activity [17]: 0.02%
7 | Cc1c(F)c(N2CCNC(C)C2)cc2c1c(=O)c(C(=O)O)cn2C1CC1 (stereo not given) [GREPAFLOXACIN] | 1400 | 8 (≈ 22.3 µM) | 1 (≈ 2.78 µM) | 0.12 (≈ 0.334 µM) | 8 (≈ 22.3 µM) | 0.06 (≈ 0.167 µM) | 1 (≈ 2.78 µM) | 4 (≈ 11.1 µM) | 14000 | 14 | 0.25 (≈ 0.696 µM) | 0.12 (≈ 0.334 µM) | 0.01 (≈ 0.0278 µM) | Activity [1]: 2.9%; Activity [18]: 0.006%; protein-bound fraction ([3]; read-out: PB): 0.5; Activity [5]: 0.5 to 2%; Activity [7]: > 10%
8 | NC1CCN(c2c(F)cc3c(=O)c(C(=O)O)cn(C4CC4)c3c2Cl)C1 (stereo not given) [CLINAFLOXACIN] | – | 0.25 (≈ 0.683 µM) | 0.06 (≈ 0.164 µM) | 0.06 (≈ 0.164 µM) | 0.5 (≈ 1.37 µM) | 0.01 (≈ 0.0273 µM) | 0.12 (≈ 0.328 µM) | 0.25 (≈ 0.683 µM) | – | – | 0.12 (≈ 0.328 µM) | 0.03 (≈ 0.082 µM) | 0.01 (≈ 0.0273 µM) | half-life [19]: 6 h; AUC [20]: 18000 ng·h/mL; Cmax [21]: 1600 ng/mL; fraction unbound [22]: 0.6; Activity (Homo sapiens): > 10%
